# Reference: patent publication US9237744B2, “Preservative solution for cells, tissues and organs containing rare sugar and preservative method thereof” (NATIONAL UNIVERSITY CORPORATION KAGAWA UNIVERSITY, priority 2004, dated 2016)
# Columns and labels:
# [1] = test system: Hela, OVCAR-3, HaCaT, HFB and NIH3T3 cells; test: Survival rate of cells after freeze-preservation at high sugar concentration, trypan blue (Example 2); assay type: cell-based, human, mouse; settings: sugar-containing medium in comparison with medium alone (FIG. 7)
# Protocol: 1. Cells used: Hela (human cervical cancer), OVCAR-3 (human ovarian cancer), HaCaT (human skin keratinocyte), HFB (human fibroblast) and NIH3T3 (mouse fibroblast). Saccharides D-allose and the like were added to culture medium, Cell Banker (commercially available preservative solution) and DMSO at concentrations of 0.2, 0.4, 0.6, 0.8 and 1M. Monosaccharides such as D-glucose, D-fructose, D-mannose and D-galactose which are present in nature in large quantities and D-allose, D-altrose, D-psicose, L-psicose, D-sorbose, L-sorbose, D-tagatose, L-tagatose and L-fructose as rare sugars were used. Further, trehalose as disaccharide was used. The cells frozen with D-allose were freeze-preserved at −80° C. and in liquid nitrogen for 24 hours, 1 week and 4 weeks. 1) Survival rate of cells: The cells were thawed, and the survival rate was estimated by a trypan blue dying method.
# [2] = test system: HFB cells and NIH3T3 cells; test: Proliferation ability after freeze-preservation with Cell Banker containing rare sugar (Example 1); assay type: cell-based, human, mouse; settings: sugar added to Cell Banker, versus Cell Banker alone (FIG. 3)
# Protocol: (§1) 1. Cells used: Hela (human cervical cancer), OVCAR-3 (human ovarian cancer), HuH-7 (human liver cancer), HaCaT (human skin keratinocyte), HFB (human fibroblast) and NIH3T3 (mouse fibroblast). Saccharides D-allose and the like were added to culture medium, Cell Banker (commercially available preservative solution) and DMSO at concentrations of 25 mM and 50 mM. Monosaccharides such as D-glucose, D-fructose, D-mannose and D-galactose which are present in nature in large quantities and D-allose, D-psicose, D-altrose, allitol, D-talitol and L-sorbose as rare sugars were used. Further, trehalose as disaccharide was used. The cells were preserved for 24 hours by being frozen at −80° C. 2) Cell growth: One day later, the cells were thawed, and 0.25˜2×10^4 cells/well were spread on 96-well plate with 0.1 mL medium. After a prescribed period of time, the cell growth was measured by MTT assay. 3) Then, the rare sugar was added to Cell Banker which was widely used for freeze-preservation of cells, and an effect of preservability was comparatively studied.
# HFB (human fibroblast) = test: Cell growth after thawing of freeze-preserved cells, MTT assay (Example 1); assay type: cell-based; settings: culture medium plus sugar, in comparison with other cases (FIG. 2)
# Protocol: as §1, with “assay.” for “assay. 3) Then, the rare sugar was added to Cell Banker which was widely used for freeze-preservation of cells, and an effect of preservability was comparatively studied.”
# [3] = test system: Hela, OVCAR-3, HaCaT, HFB and NIH3T3 cells; test: Cell growth after thawing of cells freeze-preserved at optimum concentrations, MTT assay (Example 2); assay type: cell-based, human, mouse; settings: freeze-preserved 24 hours at optimum concentration, versus other cases (FIG. 8)
# Protocol: 1. Cells used: Hela (human cervical cancer), OVCAR-3 (human ovarian cancer), HaCaT (human skin keratinocyte), HFB (human fibroblast) and NIH3T3 (mouse fibroblast). Saccharides D-allose and the like were added to culture medium, Cell Banker (commercially available preservative solution) and DMSO at concentrations of 0.2, 0.4, 0.6, 0.8 and 1M. Monosaccharides such as D-glucose, D-fructose, D-mannose and D-galactose which are present in nature in large quantities and D-allose, D-altrose, D-psicose, L-psicose, D-sorbose, L-sorbose, D-tagatose, L-tagatose and L-fructose as rare sugars were used. Further, trehalose as disaccharide was used. The cells frozen with D-allose were freeze-preserved at −80° C. and in liquid nitrogen for 24 hours, 1 week and 4 weeks. 2) Cell growth: The cells were freeze-preserved with D-allose and trehalose at optimum concentrations for 24 hours, thawed, and spread on a 96-well plate such that the concentration was 0.5-1×10^4 cells/well/0.1 ml. After a prescribed period of time, the cell growth was measured by MTT assay.
smiles,measurement,setting,value
"OC[C@H]1O[C@H](O[C@H]2O[C@H](CO)[C@@H](O)[C@H](O)[C@H]2O)[C@H](O)[C@@H](O)[C@@H]1O [trehalose, reference compound]",number of cells survived (trypan blue dying),[1],the same
same,proliferation ability after freeze-preservation,[2],nearly the same effect was obtained
same,growth rate of cells after thawing,HFB (human fibroblast),nearly the same effect was obtained
same,growth rate of cells after thawing,[3],nearly the same effect was obtained
